Experimental data from patent publication US5670667A, “Chroman-2-ylmethylamino derivatives” (American Home Products Corporation, priority 1996, dated 1997).

How the values were obtained:
[1] = target: T1, 5-HT1a (Homo sapiens, UniProt P08908); test: biochemical; type: binding
T1 sequence (P08908 1-422): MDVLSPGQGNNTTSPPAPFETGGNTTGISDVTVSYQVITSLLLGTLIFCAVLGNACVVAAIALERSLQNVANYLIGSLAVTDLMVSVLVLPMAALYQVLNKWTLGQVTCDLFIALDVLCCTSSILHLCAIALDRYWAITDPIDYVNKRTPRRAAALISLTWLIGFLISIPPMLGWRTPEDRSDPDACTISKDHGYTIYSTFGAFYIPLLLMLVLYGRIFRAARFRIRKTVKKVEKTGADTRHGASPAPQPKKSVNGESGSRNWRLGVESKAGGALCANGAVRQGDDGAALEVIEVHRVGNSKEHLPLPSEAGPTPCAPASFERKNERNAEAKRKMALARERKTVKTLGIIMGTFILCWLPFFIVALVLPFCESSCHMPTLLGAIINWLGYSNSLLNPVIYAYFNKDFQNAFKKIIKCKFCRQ

[2] = test system: α1; test: α1 IC50; type: binding

| SMILES | IC50 [1] [nM] | IC50 [2] [nM] |
| --- | --- | --- |
| Oc1ccc2c(c1)OC(CNCc1ccccc1)CC2 (centres unmarked) [Example 1f, 2-(Benzylamino-methyl)-chroman-7-ol] | 104 | 1140 |
| c1ccc(CNCC2CCc3ccccc3O2)cc1 (centres unmarked) [reference compound] |  | 630 |
| Fc1ccc(CNCC2CCc3ccccc3O2)cc1 (centres unmarked) [reference compound] |  | 1280 |
| Oc1ccc2c(c1)OC(CNCCCCc1ccccc1)CC2 (centres unmarked) [Example 1m, 2-[(4-Phenyl-butylamino)-methyl]-chroman-7-ol] |  | 80 |
